# Reference: US12640239B2, “Functional biomarkers for statin therapy in age-related macular degeneration (AMD)” (APELIOTUS TECHNOLOGIES, INC., priority 2017, dated 2026)
# Assays:
# [1] = system: AMD patients; assay: Visual acuity, standard Snellen or ETDRS eye chart; type: in vivo, human
# From the text: (§1) Table 2 provides detailed information regarding patients 1 to 7, including the baseline diagnosis (diagnosis made when starting statin therapy), ending diagnosis (the diagnosis made on the date of the last referenced evaluation), the results of evaluations performed on each patient, and whether the patient responded to statin therapy. The dark adaptation data in this Example is the rod intercept time (or RI time) reported in minutes. In this Example, the dark adaptation data was collected using the AdaptDx® Dark Adaptometer (MacuLogix, Middletown, PA) running its standard Extended Test protocol. […] Data is automatically analyzed by the AdaptDx Dark Adaptometer to provide an RI time based on recovery to a criterion sensitivity level of 5×10^−3 scotopic cd/m^2. […] The visual acuity data was collected using a standard Snellen or ETDRS eye chart with the results presented using the standard 20/20 vision scale. Drusen resolution was determined by evaluation of fundus and OCT imaging by qualified clinicians experienced in AMD evaluation. Fundus and OCT imaging data was collected using the Heidelberg Engineering Spectralis® SD-OCT (Heidelberg, Germany) or the Karl Zeiss Meditec Cirrus® HD-OCT (Jena, Germany), in both cases running standard protocols with automated data analysis performed by the instruments.
# [2] = system: AMD patients; assay: Clinical assessment of AMD diagnosis and response to statin therapy; type: in vivo, human
# From the text: AMD status has been determined in the art using a number of recognized grading systems, such as the Beckman AMD Classification System, the Age-Related Eye Disease Study (AREDS) Severity Scale, the AREDS Simplified Severity Scale, the International Classification and Grading System for AMD, and the Wisconsin Age-Related Maculopathy Grading System. When a determination of AMD status is required for a subject, the determination of AMD status is made using the Beckman AMD Classification System (Ferris et al. Ophthalmology 2013; 120:844-851).
# as §1
# The baseline diagnosis and ending diagnosis are the result of clinical assessment by qualified clinicians experienced in evaluation of AMD patients. The clinical assessment was carried out utilizing standard ophthalmic testing, such as, but not limited to, slit-lamp biomicroscopy (including looking for evidence of drusen and pigmentary changes), fundus and OCT imaging (including looking for evidence of drusen and pigmentary changes and calculation of retinal volume and retinal thickness), and testing with a Snellen or ETDRS eye chart (including looking for visual acuity changes that might indicate a change in disease status). Dark adaptation results were not used in the clinical assessment of the baseline or ending diagnosis.
# Patients 1, 3-5 and 7 were determined to be non-responders to statin treatment as the initial diagnosis was unchanged after treatment and clinical evaluation. […] For patient 2, RI time improved by 1.67 minutes OD and 2.60 minutes OS agreeing with the clinical assessment of a response to statin therapy (i.e., improving clinically). Patient 6 could not be clearly classified as a responder or non-responder to statin treatment. […] For patient 6, RI time decreased by 2.2 minutes OD, agreeing with the initial clinical signs of a response to statin therapy.
# [3] = system: patient having intermediate AMD; assay: Patient self-report of perceived changes in visual function during statin treatment; type: in vivo, human
# From the text: The patient was asked to report any perceived changes in visual function during the course of the treatment.
# The patient was asked to report any perceived changes in visual function during the course of the treatment. […] The self-reported improvement was confirmed at months 15 and 22 of treatment. […] The resolution of the drusen was confirmed by fundus photography and optical coherence tomography (OCT) imaging.
# [4] = system: AMD patients; conditions: high-dose atorvastatin; Vavvas et al., 2016; cited from earlier work
# [5] = Patient #5, atorvastatin 80 mg/day from January 2014, OD, month 0 (January 2014), baseline
# [6] = Patient #5, atorvastatin 80 mg/day from January 2014, OS, month 0 (January 2014), baseline
structure (smiles),measurement,setting,value
CC(C)c1c(C(=O)Nc2ccccc2)c(-c2ccccc2)c(-c2ccc(F)cc2)n1CC[C@@H](O)C[C@@H](O)CC(=O)O [atorvastatin],VA (visual acuity),"[1]; Patient #1, atorvastatin 20 to 80 mg/day, OD, month 0 (July 2013), baseline",VA 20/25
same,VA (visual acuity),"[1]; Patient #1, atorvastatin 20 to 80 mg/day, OD, month 59 (June 2018)",VA 20/25
same,VA (visual acuity),"[1]; Patient #1, atorvastatin 20 to 80 mg/day, OS, month 0 (July 2013), baseline",VA 20/32
same,VA (visual acuity),"[1]; Patient #1, atorvastatin 20 to 80 mg/day, OS, month 59 (June 2018)",VA 20/25
same,VA (visual acuity),"[1]; Patient #2, atorvastatin 80 mg/day, OD, month 64 (May 2018)",VA 20/30
same,VA (visual acuity),"[1]; Patient #2, atorvastatin 80 mg/day, OS, month 64 (May 2018)",VA 20/20
same,VA (visual acuity),"[1]; Patient #4, atorvastatin 80 mg/day, OD, month 0 (May 2018), baseline",VA 20/200
same,VA (visual acuity),"[1]; Patient #4, atorvastatin 80 mg/day, OD, month 3 (August 2018)",VA 20/200
same,VA (visual acuity),"[1]; Patient #4, atorvastatin 80 mg/day, OS, month 0 (May 2018), baseline",VA 20/20
same,VA (visual acuity),"[1]; Patient #4, atorvastatin 80 mg/day, OS, month 3 (August 2018)",VA 20/20
same,VA (visual acuity),[1]; [5],VA 20/25
same,VA (visual acuity),[1]; [6],VA 20/25
same,Diagnosis,"[2]; Patient #1, atorvastatin 20 to 80 mg/day from July 2013, OD, month 0 (July 2013), baseline",Intermediate AMD
same,Diagnosis,"[2]; Patient #1, atorvastatin 20 to 80 mg/day from July 2013, OS, month 0 (July 2013), baseline",Intermediate AMD
same,Diagnosis,"[2]; Patient #1, atorvastatin 20 to 80 mg/day, OD, month 60 (July 2018), ending diagnosis",Intermediate AMD
same,Diagnosis,"[2]; Patient #1, atorvastatin 20 to 80 mg/day, OS, month 60 (July 2018), ending diagnosis",Intermediate AMD
same,Responder,"[2]; Patient #1, atorvastatin 20 to 80 mg/day, month 60 (July 2018)",No
same,Diagnosis,"[2]; Patient #2, atorvastatin 80 mg/day from January 2013, OD, month 0 (January 2013), baseline",Intermediate AMD
same,Diagnosis,"[2]; Patient #2, atorvastatin 80 mg/day from January 2013, OS, month 0 (January 2013), baseline",Intermediate AMD
same,Diagnosis,"[2]; Patient #2, atorvastatin 80 mg/day, OD, month 66 (July 2018), ending diagnosis",Early AMD
same,Diagnosis,"[2]; Patient #2, atorvastatin 80 mg/day, OS, month 66 (July 2018), ending diagnosis",Early AMD
same,Responder,"[2]; Patient #2, atorvastatin 80 mg/day, month 66 (July 2018)",Yes
same,Diagnosis,"[2]; Patient #3, atorvastatin 80 mg/day from October 2016, OD, month 0 (October 2016), baseline",Late AMD (CNV)
same,Diagnosis,"[2]; Patient #3, atorvastatin 80 mg/day, OD, month 20 (June 2018), ending diagnosis",Late AMD (CNV)
same,Responder,"[2]; Patient #3, atorvastatin 80 mg/day, month 20 (June 2018)",No
same,Diagnosis,"[2]; Patient #4, atorvastatin 80 mg/day from May 2018, OD, month 0 (May 2018), baseline",Late AMD (GA)
same,Diagnosis,"[2]; Patient #4, atorvastatin 80 mg/day from May 2018, OS, month 0 (May 2018), baseline",Intermediate AMD
same,Diagnosis,"[2]; Patient #4, atorvastatin 80 mg/day, OD, month 4 (September 2018), ending diagnosis",Late AMD (GA)
same,Diagnosis,"[2]; Patient #4, atorvastatin 80 mg/day, OS, month 4 (September 2018), ending diagnosis",Intermediate AMD
same,Responder,"[2]; Patient #4, atorvastatin 80 mg/day, month 4 (September 2018)",No
same,Diagnosis,"[2]; Patient #5, atorvastatin 80 mg/day (suspended January 2015-February 2016), then 20 mg/day, pravastatin 20 mg/day from April 2018, OD, month 52 (June 2018), ending diagnosis",Intermediate AMD
same,Diagnosis,"[2]; Patient #5, atorvastatin 80 mg/day (suspended January 2015-February 2016), then 20 mg/day, pravastatin 20 mg/day from April 2018, OS, month 52 (June 2018), ending diagnosis",Intermediate AMD
same,Responder,"[2]; Patient #5, atorvastatin 80 mg/day (suspended January 2015-February 2016), then 20 mg/day, pravastatin 20 mg/day from April 2018, month 52 (June 2018)",No
same,Diagnosis,[2]; [5],Intermediate AMD
same,Diagnosis,[2]; [6],Intermediate AMD
same,Diagnosis,"[2]; Patient #6, atorvastatin 80 mg/day from November 2017, OD, month 0 (November 2017), baseline",Intermediate AMD
same,Diagnosis,"[2]; Patient #6, atorvastatin 80 mg/day from November 2017, OS, month 0 (November 2017), baseline",Intermediate AMD
same,Diagnosis,"[2]; Patient #6, atorvastatin 80 mg/day, OD, month 9 (August 2018), ending diagnosis",Intermediate AMD
same,Diagnosis,"[2]; Patient #6, atorvastatin 80 mg/day, OS, month 9 (August 2018), ending diagnosis",Intermediate AMD
same,Responder,"[2]; Patient #6, atorvastatin 80 mg/day, month 9 (August 2018)",Maybe
same,Diagnosis,"[2]; Patient #7, atorvastatin 10 to 20 mg/day from April 2016, OD, month 0 (April 2016), baseline",Intermediate AMD
same,Diagnosis,"[2]; Patient #7, atorvastatin 10 to 20 mg/day from April 2016, OS, month 0 (April 2016), baseline",Intermediate AMD
same,Diagnosis,"[2]; Patient #7, atorvastatin 10 to 20 mg/day, OD, month 27 (July 2018), ending diagnosis",Intermediate AMD
same,Diagnosis,"[2]; Patient #7, atorvastatin 10 to 20 mg/day, OS, month 27 (July 2018), ending diagnosis",Intermediate AMD
same,Responder,"[2]; Patient #7, atorvastatin 10 to 20 mg/day, month 27 (July 2018)",No
same,Self-reported change in contrast sensitivity,"[3]; Example 1: adult female, oral atorvastatin increasing to 80 mg per day over six months, no objective testing",improvement in contrast sensitivity
same,Self-reported change in dark adaptation,"[3]; Example 2: adult person, oral atorvastatin 10 to 80 mg per day for 23 months, month 7, confirmed at months 15 and 22, no objective testing",improvement in dark adaptation
same,Patients treated with disappearance of drusen deposits and improvement in vision,[4],43%
